Values joined by “and” are separate entries in the source; they are usually repeats but may differ in a detail not shown here. Equal values may be shown once. Where a name gives a salt, the structure may show the parent alone. Read-outs that look alike come from different tables or passages of the source.
Legend:
[1] = test system: mice; experiment: Anti-delayed type allergy reaction, oxazolone ear inflammation; assay type: in vivo, mouse; conditions: drug 2.0 w/v % in oxazolone acetone solution, 10 μl on right ear, 24 hr; for Inhibiting rate (%) (adding 0.1 w/v % of drug): with 0.1 w/v % of caffeine; for Inhibiting rate (%) (non-caffeine added): without caffeine
Protocol: The weights of testing mice are ranging from 20 g to 30 g. They are coated with 0.1 ml of oxazolone alcohol solution (0.5 w/v %) on the hair cleaned part of abdomen. […] After 24 hr, the mouse is killed by ether and punched a circle area of a diameter of 5.5 mm on both right and left ears in corresponding part by a puncher machine (portions of drug coated and the blank). The punched portions are weighed and the inflammation rates calculated. The control group are coated only with the oxazolone acetone solution (0.5 w/v %). The inflammation inhibiting rates of each drug are calculated by following equation: Inflammation inhibiting rate (%)=[(weight of drug-coated right ear)−(weight of non-drug-coated left ear)]×100%/(weight of non-drug-coated left ear)

[2] = test system: person; experiment: Tests for increase the ability of learning and memory; assay type: in vivo, human; conditions: three pieces of 600 mg, average of four tests before and after ingesting; for change in vivo at 1800 mg: Homo sapiens, po, read-out: Increase rate (%) of memory ability
Protocol: A person administrates see a random series of 100 numbers, typed by PC, for 10 minutes and memory it. Then recite and write down the memorized number series. To check the recited series with the original one to see how many numbers are correct. In each testing at least has 10 minutes interval, and repeat four times. […] Each kind of drugs testing is done in half day, morning or afternoon only. The testing results were counted by one correct number for one point. Make the average value of four times testing of before and after drug ingesting, respectively. The increase of learning or memory ability is calculated by following equation and listed in Table 14: Rate of increase of memory ability=[(average value of four time testing before ingesting drug)−(average value of four times testing after ingesting drug)]×100%/(average value of four time testing before ingesting drug)

[3] = test system: mouse's leaching cell solution (abdominal cavity cells), histamine release by 48/80 compound; experiment: Drug inhibiting effect on histamine leaching from mouse abdominal cavity cells treated with 48/80 compound; assay type: cell-based; conditions: testing drug 100 μg/ml; for inhibition at 100 µg/mL: Mus musculus
Protocol: This is a comparative testing for drug depressing effect on the amount of leaching histamines when is treated with 48/80 (Sigma, St. MO, USA) compound.
(1). Preparation of Leaching Cell Solution from Mouse Body.
A mouse is killed and bloodletting. Then 10 ml of Locke's solution containing 0.1% bovine serum protein is injected into its abdominal cavity. After abdominal cavity being light massaged, the cavity is cut and the Locke's solution is removed. Cavity is washed with another 5 ml of Locke's solution, and this washed solution is added to the latter one. This combined solution is centrifuged at 600 rpm for 5 minutes. The sediments are washed with 5 ml of cool Locke's solution. Adding 3 ml of cold Locke's solution to the washed sediments, then a leached cell solution of abdominal cavity is obtained. (The composition of Locke's solution is: NaCL […], KCL 0.2%, CaCL2 0.15%, glucose 1.0%, in w/v, and the rest distillated water.)
(2). Drug Inhibiting Effect on the Amount of Leaching Histamines when Treated with 48/80 Compound.
1.0 ml of each of those solutions in last term is mixed with 0.3 ml of mouse's leaching cell solution and 0.5 ml of Locke's solution. This mixture is cultivated at 37° C. for 5 minutes. Then adding 0.2 ml of Locke's solution of 48/80 compound (1 mg/100 ml) and cultivated at 37° C. for 10 minutes. Then the reaction is stopped by cooling, and centrifuged at 2,500 rpm for 10 minutes. 1.7 ml of decanted solution and 0.3 ml of sediments are obtained.
0.1 ml of water and 0.2 ml of 100% trichloroacetic acid are added to the decanted solution. 1.5 ml of Locke's solution and 0.2 ml of 100% trichloroacetic acid are added to the sediments washed solution. They are cultivated at room temperature for 30 minutes. After cultivation, the mixtures are centrifuged at 3,000 rpm for 15 minutes, respectively. 0.35 ml of each of the former two solutions is sampled. In each sample, 1.65 ml of water, 0.4 ml of 1N NaOH and 0.1 ml of 0.5% OPT (o-phthalic aldehyde) in methanol are added and cultivated at room temperature for 4 minutes. The reaction is stopped by adding 0.2 ml of 2M citric acid. And finally, determine the amount of released histamines in the tested solution by fluorescence method. By the analysis, results of the inhibiting rate of histamines could be calculated.
Locke's solution is instead of each drug in control group, and instead of both drug and 48/80 compound solution in blank group.
The histamine releasing rate (A) can be calculated by following equation. […] Where (Hs) is the total amount of histamine in the decanted solution, and (Hr) is the total amount of histamine in the sediment. (A)=[(Hs)/{(Hs)+(Hr)}]×100%. Then the inhibiting rate is:
=100−[(A−A in blank group)/(A−A in control group)]×100%.

[4] = test system: patients with toothache caused by a crowned tooth swelling; experiment: Analgesia and suppuration for tooth; assay type: in vivo, human; conditions: 2 g every two hours
Source text: It is not a best method in treating a toothache caused by a crowned tooth swelling that the ill tooth must be extracted or the crown must be destructed first. […] About 8 and 10 days were needed to suppurate and recovery completely when they could chew again. This method can keep the ill tooth without extraction.

[5] = adding 5% of coffee extract, read-out: inhibiting rate (%) (adding 5% of coffee extract)
[6] = non adding coffee extract, read-out: Inhibiting rate (%) (non adding coffee extract)

Structure (SMILES) | Inhibiting rate (%) (adding 0.1 w/v % of drug) [1] | Inhibiting rate (%) (non-caffeine added) [1] | change in vivo at 1800 mg [2] [%] | inhibition at 100 µg/mL [3, 5] [%] | inhibition at 100 µg/mL [3, 6] [%] | Days needed to suppurate and recovery completely ([4]; one value per patient) | Toothache pain ([4]; two patients) | Increase rate (%) of memory ability [2] [%] | inhibiting rate (%) (adding 5% of coffee extract) ([3]; adding 5% of coffee extract) | Inhibiting rate (%) (non adding coffee extract) ([3]; non adding coffee extract)
O=C(O)CC(O)(CC(=O)O)C(=O)O [Citric acid] | 100 | 100 | 360 | 100 | 100 |  |  |  |  | 
CN(C)CCOC(c1ccccc1)c1ccccc1 [Diphenhydramine hydrochloride, reference compound] | 20 | 20 |  | 50.4 | 32.1 |  |  |  |  | 
O=C(O)/C=C/C(=O)O [Fumaric acid] | 100 | 98 | 300 | 100 | 100 |  |  |  |  | 
CC(O)C(=O)O (stereo not shown) [Lactic acid] | 98 | 97 | 280 | 100 | 100 |  |  |  |  | 
O=C(O)CC(O)C(=O)O (stereo not shown) [Malic acid] | 100 | 96 | 315 | 100 | 100 | About 8 days and ~10 days | pains were killed |  |  | 
O=C(O)C(O)C(O)C(=O)O (stereo not shown) [Tartaric acid] | 99 | 97 | 305 | 100 | 100 |  |  |  |  | 
O=C(O)CO [α-hydroxy ethanoic acid] |  |  |  |  |  |  |  | 300 | 100 | 100
CCCCCCC(O)C(=O)O (stereo not drawn) [α-hydroxy octanoic acid] |  |  | 300 | 100 | 100 |  |  |  |  | 

Reference: patent US20080286388A1, “Pharmaceutical Composition and Non Dependence Coffee Comprising Edible Carboxylic Acid and/or Its Acid Salts and Coffeine” (priority 2004, published 2008)
